In the first data set the test system is EA.hy 926. The experiment in a line: Antiproliferative activity against human EAhy926 cells after 48 hrs by MTT assay. In kind it is functional, cell-based. The settings on record: EA.hy 926, 48 h. (In general: Tetrazolium dyes change colour on reduction, which living cells bring about.)
For the compound `Cc1nc(C=O)cc2c3ccccc3n(Cc3ccccc3)c12`, the IC50 is more than 100 µM.
On the same count and under the same terms, next, `Cn1c2ccccc2c2cc(CNCCCCNCc3cc4c5ccccc5n(C)c4c(-c4ccccc4)n3)nc(-c3ccccc3)c21`: 2.47 µM.
The compound `Cc1nc(CNCCCCNCc2cc3c4ccccc4n(Cc4ccccc4)c3c(C)n2)cc2c3ccccc3n(Cc3ccccc3)c12` had an IC50 of 3.18 µM.
Same read-out and setting: the figure for `Cc1nc(C=O)cc2c3ccccc3n(CCCc3ccccc3)c12` is more than 100 µM; for `Cc1nc(CNCCCCNCc2cc3c4ccccc4n(C)c3c(C)n2)cc2c3ccccc3n(C)c12` it is 2.76 µM.
On the same count and under the same terms, next, `COc1ccc(-c2nc(C=O)cc3c4ccccc4n(-c4ccccc4)c23)cc1`: more than 100 µM.
Same read-out and setting: next, `Cc1nc(CNCCCCNCc2cc3c4ccccc4n(C(C)C)c3c(C)n2)cc2c3ccccc3n(C(C)C)c12`: 1.28 µM; `CC(C)c1nc(C=O)cc2c3ccccc3n(Cc3ccccc3)c12`: more than 100 µM.
Take `Cn1c2ccccc2c2cc(CNCCCCCCNCc3cc4c5ccccc5n(C)c4c(-c4ccccc4)n3)nc(-c3ccccc3)c21`: the IC50 came out at 1.61 µM.
`CCn1c2ccccc2c2cc(CNCCCNCc3cc4c5ccccc5n(CC)c4c(-c4cc(OC)c(OC)c(OC)c4)n3)nc(-c3cc(OC)c(OC)c(OC)c3)c21` came in with an IC50 of 13.4 µM. This IC50 is about 8.3-fold higher than that of the compound before.
Same read-out and setting: next, `CCCCn1c2ccccc2c2cc(C=O)nc(C)c21`: more than 100 µM; `COc1ccc(/C=C\c2cc(OC)c(OC)c(OC)c2)cc1OP(=O)(O)O` [FOSBRETABULIN]: 6.4 µM.
On the same count and under the same terms, the figure for `CC(C)c1nc(CNCCCCCNCc2cc3c([nH]c4ccccc43)c(C(C)C)n2)cc2c1[nH]c1ccccc12` is more than 20 µM; for `CCCCn1c2ccccc2c2cc(C=O)nc(C(C)C)c21` it is more than 100 µM.
The same measure, in the same setting: next, `O=Cc1cc2c3ccccc3n(Cc3ccccc3)c2c(-c2ccccc2)n1`: more than 100 µM; `CCCCn1c2ccccc2c2cc(CNCCCNCc3cc4c5ccccc5n(CCCC)c4c(-c4ccc(Cl)cc4)n3)nc(-c3ccc(Cl)cc3)c21`: more than 20 µM; `COc1ccc(-c2nc(CNCCCCCNCc3cc4c5ccccc5n(Cc5ccccc5)c4c(-c4ccc(OC)cc4)n3)cc3c4ccccc4n(Cc4ccccc4)c23)cc1`: 3.88 µM.
In the case of `COc1ccc(-c2nc(C=O)cc3c4ccccc4n(C)c23)cc1`, the IC50 is more than 100 µM.
On the same count and under the same terms, the figure for `CC(C)c1nc(CNCCCNCc2cc3c4ccccc4n(Cc4ccccc4)c3c(C(C)C)n2)cc2c3ccccc3n(Cc3ccccc3)c12` is 13.5 µM.
The same measure, in the same setting: the figure for `Cc1nc(CNCCCCNCc2cc3c4ccccc4n(CC(C)C)c3c(C)n2)cc2c3ccccc3n(CC(C)C)c12` is 2.56 µM; for `c1ccc(Cn2c3ccccc3c3cc(CNCCCCCCNCc4cc5c6ccccc6n(Cc6ccccc6)c5c(-c5ccccc5)n4)nc(-c4ccccc4)c32)cc1` it is 8.09 µM.
Still for that read-out and setting: next, `Cc1nc(C=O)cc2c3ccccc3n(C)c12`: more than 100 µM; `CC(C)c1nc(CNCCCCCCNCc2cc3c4ccccc4n(Cc4ccccc4)c3c(C(C)C)n2)cc2c3ccccc3n(Cc3ccccc3)c12`: 2.03 µM; `Cn1c2ccccc2c2cc(C=O)nc(-c3ccccc3)c21`: more than 100 µM.
On to `Cc1nc(C=O)cc2c3ccccc3n(Cc3cccc(Cl)c3)c12`, for which the IC50 was more than 100 µM.
Same read-out and setting: the figure for `Cc1nc(CNCCCNCc2cc3c4ccccc4n(CCCc4ccccc4)c3c(C)n2)cc2c3ccccc3n(CCCc3ccccc3)c12` is 9.87 µM; for `CCCCCCn1c2ccccc2c2cc(C=O)nc(-c3ccc(OC)cc3)c21` it is more than 100 µM; for `CCCCCCn1c2ccccc2c2cc(CNCCCCCCNCc3cc4c5ccccc5n(CCCCCC)c4c(-c4ccc(OC)cc4)n3)nc(-c3ccc(OC)cc3)c21` it is 4.25 µM.
Same read-out and setting: the figure for `CCCCn1c2ccccc2c2cc(CNCCCCNCc3cc4c5ccccc5n(CCCC)c4c(C(C)C)n3)nc(C(C)C)c21` is 2.38 µM.
The compound `CCCCn1c2ccccc2c2cc(CNCCCCNCc3cc4c5ccccc5n(CCCC)c4c(-c4ccc(Cl)cc4)n3)nc(-c3ccc(Cl)cc3)c21` returned an IC50 of 4.85 µM. This IC50 lies about 2-fold higher than the previous one.
Same read-out and setting: next, `COc1ccc(-c2nc(CNCCCCCNCc3cc4c5ccccc5n(C)c4c(-c4ccc(OC)cc4)n3)cc3c4ccccc4n(C)c23)cc1`: 1.1 µM; `CC(C)c1nc(C=O)cc2c1[nH]c1ccccc12`: more than 100 µM.
Still for that read-out and setting: the figure for `Cc1nc(CNCCCNCc2cc3c4ccccc4n(Cc4ccccc4)c3c(C)n2)cc2c3ccccc3n(Cc3ccccc3)c12` is 15.3 µM; for `Cc1nc(C=O)cc2c3ccccc3n(CC(C)C)c12` it is more than 100 µM; for `Clc1ccc(-c2nc(CNCCCCCNCc3cc4c5ccccc5n(Cc5ccccc5)c4c(-c4ccc(Cl)cc4)n3)cc3c4ccccc4n(Cc4ccccc4)c23)cc1` it is 4.32 µM.
As to `COc1ccc(-c2nc(C=O)cc3c2[nH]c2ccccc23)cc1`, the IC50 is more than 100 µM.
Still for that read-out and setting: next, `CCCCn1c2ccccc2c2cc(C=O)nc(-c3ccc(Cl)cc3)c21`: more than 100 µM.
With `Clc1ccc(-c2nc(CNCCCCCCNCc3cc4c5ccccc5n(Cc5ccccc5)c4c(-c4ccc(Cl)cc4)n3)cc3c4ccccc4n(Cc4ccccc4)c23)cc1`, half-maximal inhibition (IC50) was put at 3.63 µM.
The same measure, in the same setting: next, `Cc1nc(CNCCCCCCNCc2cc3c4ccccc4n(C)c3c(C)n2)cc2c3ccccc3n(C)c12`: 1.85 µM.
The compound `COc1cc(-c2nc(C=O)cc3c4ccccc4n(CCCc4ccccc4)c23)cc(OC)c1OC` yielded an IC50 of more than 100 µM.
On the same count and under the same terms, the figure for `Cc1nc(C=O)cc2c3ccccc3n(C(C)C)c12` is more than 100 µM; for `COc1cc(-c2nc(CNCCCCCCNCc3cc4c5ccccc5n(CCCc5ccccc5)c4c(-c4cc(OC)c(OC)c(OC)c4)n3)cc3c4ccccc4n(CCCc4ccccc4)c23)cc(OC)c1OC` it is 1.69 µM.
The same measure, in the same setting: next, `COc1ccc(-c2nc(CNCCCCNCc3cc4c([nH]c5ccccc54)c(-c4ccc(OC)cc4)n3)cc3c2[nH]c2ccccc23)cc1`: 10.3 µM.
Same read-out and setting: the figure for `O=Cc1cc2c3ccccc3n(Cc3ccccc3)c2c(-c2ccc(Cl)cc2)n1` is more than 100 µM.
In turn, `CCCCn1c2ccccc2c2cc(CNCCCCNCc3cc4c5ccccc5n(CCCC)c4c(C)n3)nc(C)c21` displayed an IC50 of 1.69 µM.
On the same count and under the same terms, next, `COc1ccc(-c2nc(CNCCCCNCc3cc4c5ccccc5n(C)c4c(-c4ccc(OC)cc4)n3)cc3c4ccccc4n(C)c23)cc1`: 2.94 µM; `Cc1nc(CNCCCNCc2cc3c4ccccc4n(Cc4cccc(Cl)c4)c3c(C)n2)cc2c3ccccc3n(Cc3cccc(Cl)c3)c12`: 11.1 µM; `c1ccc(Cn2c3ccccc3c3cc(CNCCCNCc4cc5c6ccccc6n(Cc6ccccc6)c5c(-c5ccccc5)n4)nc(-c4ccccc4)c32)cc1`: more than 20 µM.
On the same count and under the same terms, next, `CCn1c2ccccc2c2cc(C=O)nc(-c3cc(OC)c(OC)c(OC)c3)c21`: more than 100 µM; `COc1ccc(-c2nc(CNCCCCCCNCc3cc4c5ccccc5n(Cc5ccccc5)c4c(-c4ccc(OC)cc4)n3)cc3c4ccccc4n(Cc4ccccc4)c23)cc1`: 4.4 µM; `Cc1nc(CNCCCNCc2cc3c4ccccc4n(CC(C)C)c3c(C)n2)cc2c3ccccc3n(CC(C)C)c12`: 11.8 µM.
On the same count and under the same terms, next, `CCCCn1c2ccccc2c2cc(CNCCCCCNCc3cc4c5ccccc5n(CCCC)c4c(C(C)C)n3)nc(C(C)C)c21`: 1.4 µM.

Tested on in a further data set: not listed separately
The experiment in a line: Solubility of the compound in water. In kind it is physicochemical.
Conditions: not given
`CC(C)c1nc(CNCCCCCCNCc2cc3c4ccccc4n(Cc4ccccc4)c3c(C(C)C)n2)cc2c3ccccc3n(Cc3ccccc3)c12.Cl` displayed a solubility of more than 10000 µg/mL.
Still for that read-out and setting: the figure for `Cl.c1ccc(Cn2c3ccccc3c3cc(CNCCCNCc4cc5c6ccccc6n(Cc6ccccc6)c5c(-c5ccccc5)n4)nc(-c4ccccc4)c32)cc1` is more than 10000 µg/mL; for `Cc1nc(CNCCCNCc2cc3c4ccccc4n(Cc4ccccc4)c3c(C)n2)cc2c3ccccc3n(Cc3ccccc3)c12.Cl` it is more than 10000 µg/mL; for `COc1cc(-c2nc(CNCCCCCCNCc3cc4c5ccccc5n(CCCc5ccccc5)c4c(-c4cc(OC)c(OC)c(OC)c4)n3)cc3c4ccccc4n(CCCc4ccccc4)c23)cc(OC)c1OC.Cl` it is more than 10000 µg/mL.
The same measure, in the same setting: the figure for `Cl.Clc1ccc(-c2nc(CNCCCCCCNCc3cc4c5ccccc5n(Cc5ccccc5)c4c(-c4ccc(Cl)cc4)n3)cc3c4ccccc4n(Cc4ccccc4)c23)cc1` is more than 10000 µg/mL; for `CCCCn1c2ccccc2c2cc(CNCCCCCNCc3cc4c5ccccc5n(CCCC)c4c(C(C)C)n3)nc(C(C)C)c21.Cl` it is more than 10000 µg/mL.
Still for that read-out and setting: next, `COc1ccc(-c2nc(CNCCCCCCNCc3cc4c5ccccc5n(Cc5ccccc5)c4c(-c4ccc(OC)cc4)n3)cc3c4ccccc4n(Cc4ccccc4)c23)cc1.Cl`: more than 10000 µg/mL.
Take `CC(C)c1nc(CNCCCNCc2cc3c4ccccc4n(Cc4ccccc4)c3c(C(C)C)n2)cc2c3ccccc3n(Cc3ccccc3)c12.Cl`: the solubility is more than 10000 µg/mL.
Same read-out and setting: next, `COc1ccc(-c2nc(CNCCCCNCc3cc4c([nH]c5ccccc54)c(-c4ccc(OC)cc4)n3)cc3c2[nH]c2ccccc23)cc1.Cl`: more than 10000 µg/mL; `CCCCn1c2ccccc2c2cc(CNCCCCNCc3cc4c5ccccc5n(CCCC)c4c(C(C)C)n3)nc(C(C)C)c21.Cl`: more than 10000 µg/mL; `CCCCn1c2ccccc2c2cc(CNCCCCNCc3cc4c5ccccc5n(CCCC)c4c(C)n3)nc(C)c21.Cl`: more than 10000 µg/mL.
The same measure, in the same setting: next, `CCn1c2ccccc2c2cc(CNCCCNCc3cc4c5ccccc5n(CC)c4c(-c4cc(OC)c(OC)c(OC)c4)n3)nc(-c3cc(OC)c(OC)c(OC)c3)c21.Cl`: more than 10000 µg/mL.
On the same count and under the same terms, next, `COc1ccc(-c2nc(CNCCCCCNCc3cc4c5ccccc5n(C)c4c(-c4ccc(OC)cc4)n3)cc3c4ccccc4n(C)c23)cc1.Cl`: more than 10000 µg/mL.
With `CCCCCCn1c2ccccc2c2cc(CNCCCCCCNCc3cc4c5ccccc5n(CCCCCC)c4c(-c4ccc(OC)cc4)n3)nc(-c3ccc(OC)cc3)c21.Cl`, the solubility was more than 10000 µg/mL.
Still for that read-out and setting: the figure for `COc1ccc(-c2nc(CNCCCCNCc3cc4c5ccccc5n(C)c4c(-c4ccc(OC)cc4)n3)cc3c4ccccc4n(C)c23)cc1.Cl` is more than 10000 µg/mL.
Same read-out and setting: the figure for `Cc1nc(CNCCCCNCc2cc3c4ccccc4n(CC(C)C)c3c(C)n2)cc2c3ccccc3n(CC(C)C)c12.Cl` is more than 10000 µg/mL.
Same read-out and setting: next, `CC(C)c1nc(CNCCCCCNCc2cc3c([nH]c4ccccc43)c(C(C)C)n2)cc2c1[nH]c1ccccc12.Cl`: more than 10000 µg/mL; `COc1ccc(-c2nc(CNCCCCCNCc3cc4c5ccccc5n(Cc5ccccc5)c4c(-c4ccc(OC)cc4)n3)cc3c4ccccc4n(Cc4ccccc4)c23)cc1.Cl`: more than 10000 µg/mL.

One may read the IC50 as the concentration needed to halve the response being measured. High values mean a need for much substance, low ones inhibition by little substance. As usually defined, the solubility is how much of the substance goes into solution per volume. The low end stands for a poorly soluble substance, the high end for a readily soluble substance.

The record behind these values is ChEMBL document CHEMBL4190168 (Medchemcomm, 2016).
